Here are results for 2 compounds from patent US9402919B2, “Vectors conditionally expressing protein” (Intrexon Corporation, priority 2011, dated 2016).

Some results are limits rather than exact numbers.

Test [1] has as its system Lewis lung carcinoma (LLC). The test can be described thus: Syngeneic Lewis lung carcinoma model: tumor growth after i.t. Ad-RTS vectors with oral AL. In kind it is in vivo, mice. The settings on record: oral AL alone in feed at 1000 ppm (~225 mg/kg/day). An excerpt:
Current cancer immunotherapies have provided limited success in the clinic and innovative strategies are required to further enhance the effectiveness of an anti-tumor immune response. This study assessed anti-tumor activity utilizing intratumoral (i.t.) administration of adenovirus (Ad) with the novel Rheoswitch Therapeutic System® (RTS®), an inducible promoter system, for regulated expression of murine IL-12 or IFNa. Oral administration of a small molecule activator ligand (AL), INXN-1001, regulates the expression of IL-12 in Ad-RTS-mIL-12 and IFNa in Ad-RTS-mIFNa. The regulated expression and therapeutic benefit of IL-12 and IFNa from i.t. administered Ad-RTS-mIL-12 and Ad-RTS-mIFNa, either alone or in combination, was examined in syngeneic Lewis lung carcinoma (LLC) and syngeneic mammary carcinoma (4T1) models.
In contrast, i.t. injection with 10^10 vp Ad-RTS-mIL-12 or Ad-RTS-mIFNa and daily oral AL led to significant tumor growth inhibition by day 25 (72 and 71%, respectively; p<0.05). […] Future studies will investigate the mechanism by which both IL-12 and IFNα exert their anti-tumor effect in the above tumor models.
LLC and 4T1 cells were transiently transduced with Ad-RTS-murine IL12 or Ad-RTS-murine IFNa at a MOI of 100. […] Supernatants were collected at 48 h and cytokine levels assessed by ELISA. n=3, mean±s.d. […]

Another test deals with murine melanoma, B16F0. The test can be described thus: Bilateral B16F0 melanoma model: tumor volume after intratumoral Ad-RTS-mIL12. In kind it is in vivo, C57BL/6 mice. To be noted: day 21 post cell inoculation; activator ligand chow 1000 mg/kg alone, no vector. From the text:
We investigated if the treatment of a local tumor with Ad-RTS-mIL12 (resulting in local tumor growth regression) would also lead to anti-tumor activity in the distant tumor. Toward this goal, we developed melanoma tumors on both flank regions of immunocompetent mice (C57BL/6) and treated the tumor on the right flank with Ad-RTS-mIL12 in the presence of activator ligand.
Six- to eight-week-old female C57B1/6 mice were purchased from Harlan (USA). Animal care and experimental procedures were performed according to Intrexon's Institutional Animal Care and Use Committee guidelines.
The murine melanoma (B16F0) cells were purchased from ATCC (Manassas, Va.). B16F0 cells were grown in Dulbecco's modified Eagle's medium (ATCC, Manassas, Va.), The DMEM was supplemented with heat-inactivated fetal calf serum (FCS) 10% v/v, 2-mM L-glutamine (Atlanta Biologicals, Inc, Lawrenceville, Ga.), 100 IU/ml […], and 100 μg/ml streptomycin. The cells were grown at 37° C. in 5% CO2. All cell lines were routinely tested and found to be free of mycoplasma. […]
Vector was administered intratumorally on Day 12 and Day 19 post tumor cell inoculation. Tumor size and body weight of each mouse were monitored three times a week until the end of the study. […]
The tumor volumes were calculated using the formula, L×W^2/2. […]

The nature of test [2]: Plasma HuEPO expression as a function of activator ligand dose in chow after IM AAV-HuEPO (0034A). In kind it is in vivo. As for the experimental part:
Animals were anesthetized, their quadriceps were visualized and the injection site sterilized. The mice were injected with vector using a 0.5 ml insulin syringe and a 29.5 gauge needle. Each animal was injected with total of 10^11 virus genomes in a 100 μl volume. After the procedure, the animals were placed in their cage and observed for normal ambulation.
Plasma samples were assayed for the presence of human erythropoietin using Enzyme Linked Immunosorbent Assay (ELISA) (StemCell Technologies, #01630).
Animals were bled for baseline HCT levels, followed by IM administration of 10^11 AAV-HuEPO viral genomes per animal (0034A). Animals received activator ligand-containing chow, with activator ligand concentrations 1000 mg/kg (18-1000), 250 mg/kg (18-250), 100 mg/kg (18-100), 50 mg/kg (18-50), or 0 mg/kg (18-0) starting on the day of AAV administration. Control animals received either vector administration and normal chow (no activator ligand, 18-0), or they received vehicle-alone IM administration (saline) with (18-1000) or without (18-0) activator ligand. HCT and HuEPO expression levels were measured in all groups every 7 days.

With `CCC[C@@H](N(NC(=O)c1cccc(OC)c1CC)C(=O)c1cc(C)cc(C)c1)C(C)(C)C` [AL], in test [1], the “inhibition of tumor growth compared to control, untreated tumors” value is listed as “did not result in significant inhibition of tumor growth”.

With `CCC[C@@H](N(NC(=O)c1cccc(OC)c1CC)C(=O)c1cc(C)cc(C)c1)C(C)(C)C` [activator ligand, (R)-3,5-Dimethyl-benzoic acid N-(1-tert-butyl-butyl)-N′-(2-ethyl-3-methoxy-benzoyl)-hydrazide], the “average tumor volume, right flank tumor” value in the test on murine melanoma, B16F0 was found to be 924±80 mm^3. For the same compound, the “plasma HuEPO expression” value was “detectable” in test [2] (ligand chow 50 mg/kg (18-50), 14 and 21 days, 0034A IM); at most 8 mU/ml in test [2] (ligand chow 50 mg/kg (18-50), 7 days, 0034A 10^11 viral genomes IM, limit of sensitivity of the assay); “lower HuEPO expression” in test [2] (ligand chow 100 mg/kg (18-100), 7 days, 0034A IM).
